In ChEMBL document CHEMBL1134772, “Synthesis and evaluation of hydroxylated polyamine analogues as antiproliferatives” (J Med Chem, 2001):
One block for each compound: values may come before it.

Legend:
[1] = target: T1, Ornithine decarboxylase (Mus musculus) (UniProt P00860); experiment: Percent of ornithine decarboxylase enzyme activity in L1210 cells after 4 hr of treatment with 1 uM of dose; type: cell-based
T1 sequence (whole entry): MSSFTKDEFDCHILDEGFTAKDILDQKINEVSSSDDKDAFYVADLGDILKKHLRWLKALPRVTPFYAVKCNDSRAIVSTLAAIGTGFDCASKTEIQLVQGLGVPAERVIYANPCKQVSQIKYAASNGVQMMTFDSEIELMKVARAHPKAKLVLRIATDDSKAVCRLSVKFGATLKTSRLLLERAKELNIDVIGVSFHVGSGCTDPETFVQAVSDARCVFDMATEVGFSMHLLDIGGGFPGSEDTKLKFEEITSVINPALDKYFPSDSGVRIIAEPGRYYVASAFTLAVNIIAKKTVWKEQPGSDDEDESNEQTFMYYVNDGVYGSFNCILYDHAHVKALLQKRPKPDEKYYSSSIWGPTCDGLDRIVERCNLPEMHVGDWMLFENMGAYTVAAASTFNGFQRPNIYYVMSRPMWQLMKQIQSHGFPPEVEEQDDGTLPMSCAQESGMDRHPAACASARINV

[2] = Number of CD-1 mice died in a 6-day course after administration of 200 mg/kg dose of compound; 10/12; type: functional, Mus musculus
[3] = system: L1210; experiment: Effect of compound on the level of putrescine in polyamine pools of L1210 cells after 48 hr of treatment with 10 uM of dose; type: functional, Mus musculus
[4] = system: L1210; experiment: Effect of compound on the level of spermidine in polyamine pools of L1210 cells after 48 hr of treatment with 10 uM of dose; type: functional, Mus musculus
[5] = target: T2, Spermidine/spermine N(1)-acetyltransferase (SAT) (Mus musculus) (UniProt Q6P8J2+P48026); experiment: Percent of Spermidine/spermine-N1- acetyltransferase enzyme activity in L1210 cells after 48 hr of treatment with 10 uM of dose; type: cell-based
[6] = system: L1210; experiment: Amount of compound present per 10e6 L1210 cells after 48 hr of treatment with 10 uM of dose; type: functional, cell-based; conditions: Mus musculus
[7] = Number of CD-1 mice died after administration of 325 mg/kg dose of compound; 5/10; type: functional, Mus musculus
[8] = system: L1210; experiment: Effect of compound on the level of spermidine in polyamine pools of L1210 cells after 48 hr of treatment with 100 uM of dose; type: functional, Mus musculus
[9] = system: L1210; experiment: Effect of compound on the level of spermine in polyamine pools of L1210 cells after 48 hr of treatment with 100 uM of dose; type: functional, Mus musculus
[10] = system: L1210; experiment: Amount of compound present per 10e6 L1210 cells after 48 hr of treatment with 100 uM of dose; type: functional, cell-based; conditions: Mus musculus
[11] = system: L1210; experiment: Effect of compound on the level of putrescine in polyamine pools of L1210 cells after 48 hr of treatment with 100 uM of dose; type: functional, Mus musculus
[12] = system: L1210; experiment: Percent of S-adenosyl-methionine decarboxylase enzyme activity in L1210 cells after 6 hr of treatment with 1 uM of dose; type: cell-based
[13] = system: L1210; experiment: Inhibition of transport of [3H]spermidine in L1210 cells; type: functional, cell-based, Mus musculus
[14] = system: L1210; experiment: Effect of compound on the level of spermine in polyamine pools of L1210 cells after 48 hr of treatment with 10 uM of dose; type: functional, Mus musculus
[15] = Number of CD-1 mice died in a 5-day course after administration of 75 mg/kg dose of compound; 0/5; type: functional, Mus musculus
[16] = system: L1210; experiment: Effect of compound on the level of spermidine in polyamine pools of L1210 cells after 48 hr of treatment with 20 uM of dose; type: functional, Mus musculus
[17] = Number of CD-1 mice died in a 5-day course after administration of 10 mg/kg dose of compound; 0/7; type: functional, Mus musculus
[18] = Number of CD-1 mice died in a 5-day course after administration of 25 mg/kg dose of compound; 0/7; type: functional, Mus musculus
[19] = system: L1210; experiment: Inhibitory concentration of compound against the growth of the L1210 cell line at 96 hr; type: functional, cell-based; conditions: Mus musculus, L1210, 96 h
[20] = Number of CD-1 mice died after administration of 100 mg/kg dose of compound; 1/5; type: functional, Mus musculus
[21] = system: L1210; experiment: Inhibitory concentration of compound against the growth of the L1210 cell line at 48 hr; type: functional, cell-based; conditions: Mus musculus, L1210, 48 h
[22] = Number of CD-1 mice died in a 5-day course after administration of 50 mg/kg dose of compound; 0/7; type: functional, Mus musculus
[23] = system: L1210; experiment: Amount of compound present per 10e6 L1210 cells after 48 hr of treatment with 20 uM of dose; type: functional, cell-based; conditions: Mus musculus
[24] = system: L1210; experiment: Effect of compound on the level of spermine in polyamine pools of L1210 cells after 48 hr of treatment with 20 uM of dose; type: functional, Mus musculus
[25] = system: L1210; experiment: Effect of compound on the level of putrescine in polyamine pools of L1210 cells after 48 hr of treatment with 20 uM of dose; type: functional, Mus musculus
[26] = Number of CD-1 mice died in a 5-day course after administration of 100 mg/kg dose of compound; 0/5; type: functional, Mus musculus
[27] = Number of CD-1 mice died after administration of 200 mg/kg dose of compound; 5/5; type: functional, Mus musculus
[28] = Number of CD-1 mice died after administration of 100 mg/kg dose of compound; 0/5; type: functional, Mus musculus
[29] = system: L1210; experiment: Inhibition of transport of [3H]-spermidine by L1210 cells; type: functional, cell-based, Mus musculus
[30] = system: L1210; experiment: Effect of compound on the level of putrescine in polyamine pools of L1210 cells after 48 hr of treatment with 4 uM compound dose; type: functional, Mus musculus
[31] = system: L1210; experiment: Percent of S-adenosyl-methionine decarboxylase enzyme activity in L1210 cells after 6 hr of treatment with 1 uM dose of compound; type: cell-based
[32] = system: L1210; experiment: Effect of compound on the level of putrescine in polyamine pools of L1210 cells after 48 hr of treatment with 20 uM compound dose; type: functional, Mus musculus
[33] = system: L1210; experiment: Effect of compound on the level of spermine in polyamine pools of L1210 cells after 48 hr of treatment with 20 uM compound dose; type: functional, Mus musculus
[34] = target: T1, Ornithine decarboxylase (Mus musculus); experiment: Percent of ornithine decarboxylase enzyme activity in L1210 cells after 4 hr of treatment with 1 uM dose of compound; type: cell-based
[35] = Number of CD-1 mice died in a 5-day course after administration of 200 mg/kg dose of compound; 0/5; type: functional, Mus musculus
[36] = system: L1210; experiment: Effect of compound on the level of spermidine in polyamine pools of L1210 cells after 48 hr of treatment with 20 uM compound dose; type: functional, Mus musculus
[37] = Number of CD-1 mice died after administration of 400 mg/kg dose of compound; 0/5; type: functional, Mus musculus
[38] = system: L1210; experiment: Amount of compound present per 10e6 L1210 cells after 48 hr of treatment with 20 uM of it; type: functional, cell-based; conditions: Mus musculus
[39] = system: L1210; experiment: Amount of compound present per 10e6 L1210 cells after 48 hr of treatment with 4 uM of it; type: functional, cell-based; conditions: Mus musculus
[40] = system: L1210; experiment: Effect of compound on the level of spermine in polyamine pools of L1210 cells after 48 hr of treatment with 4 uM compound dose; type: functional, Mus musculus
[41] = system: L1210; experiment: Effect of compound on the level of spermidine in polyamine pools of L1210 cells after 48 hr of treatment with 4 uM compound dose; type: functional, Mus musculus
[42] = Number of CD-1 mice died in a 5-day course after administration of 300 mg/kg dose of compound; 0/5; type: functional, Mus musculus
[43] = Number of CD-1 mice died after administration of 200 mg/kg dose of compound; 0/5; type: functional, Mus musculus
[44] = target: T2, Spermidine/spermine N(1)-acetyltransferase (SAT) (Mus musculus); experiment: Percent of Spermidine/spermine-N1- acetyltransferase enzyme activity in L1210 cells after 48 hr of treatment with 10 uM dose of compound; type: cell-based

T2 sequence (P48026 whole entry, looked up): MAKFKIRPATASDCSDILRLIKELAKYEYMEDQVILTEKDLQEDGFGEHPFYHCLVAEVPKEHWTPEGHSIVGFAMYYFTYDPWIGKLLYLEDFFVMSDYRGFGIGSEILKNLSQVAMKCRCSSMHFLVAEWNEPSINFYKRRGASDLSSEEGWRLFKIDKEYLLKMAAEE
T2 sequence (Q6P8J2 whole entry, looked up): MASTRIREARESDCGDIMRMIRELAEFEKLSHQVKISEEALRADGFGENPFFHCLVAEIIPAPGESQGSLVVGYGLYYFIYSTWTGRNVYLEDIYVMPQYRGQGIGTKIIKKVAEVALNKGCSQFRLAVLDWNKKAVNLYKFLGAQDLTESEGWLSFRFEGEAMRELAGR

Control [1]: 35%
SMILES: CCNC[C@@H](O)CNCCCNC[C@H](O)CNCC

SMILES: CCNCCCNCCCNCCCNCC [BIS(ETHYL)NORSPERMINE]
No. of deaths/mice injected [2]: 10 | Control [3]: 30% | Control [4]: 14% | Control [5]: 3880% | Concentration [6]: 1.59 nM | No. of deaths/mice injected [7]: 5 | Control [8]: 6% | Control [9]: 30% | Concentration [10]: 2.44 nM | Control [11]: 0% | Control [12]: 42% | Ki [13]: 7 µM | Control [1]: 7% | Control [14]: 31%

SMILES: CCNCCCNCCCNCCCNCC1CC1
No. of deaths/mice injected [15]: 0 | Control [16]: 25% | No. of deaths/mice injected [17]: 0 | Control [5]: 3260% | No. of deaths/mice injected [18]: 0 | IC50 [19]: 0.55 µM | Control [8]: 16% | Control [9]: 56% | No. of deaths/mice injected [20]: 1 | Concentration [10]: 2.59 nM | IC50 [21]: 16 µM | No. of deaths/mice injected [22]: 0 | Control [11]: 13% | Concentration [23]: 2.17 nM | Control [12]: 48% | Control [24]: 66% | Control [25]: 22% | Ki [13]: 13 µM | No. of deaths/mice injected [26]: 0 | Control [1]: 26% | No. of deaths/mice injected [27]: 5

SMILES: CCNC[C@H](O)CNCCCNC[C@@H](O)CNCC1CC1
No. of deaths/mice injected [28]: 0 | Ki [29]: 40 µM | Control [30]: 43% | Control [31]: 59% | Control [32]: 20% | Control [33]: 123% | IC50 [19]: 0.97 µM | Control [34]: 37% | No. of deaths/mice injected [35]: 0 | Control [36]: 32% | No. of deaths/mice injected [37]: 0 | Amount (nmol/10^6 cells) [38]: 3.05 | Amount (nmol/10^6 cells) [39]: 1.94 | Control [40]: 119% | IC50 [21]: 4.5 µM | Control [41]: 48% | No. of deaths/mice injected [42]: 0 | No. of deaths/mice injected [43]: 0 | Control [44]: 2500% | No. of deaths/mice injected [26]: 0

Control [1]: 61%
SMILES: CCNC[C@H](O)CNCCCNC[C@@H](O)CNCC
